Some results are limits rather than exact numbers.

Here are results for 38 compounds from patent publication US11261211B2, “19-NOR neuroactive steroids and methods of use thereof” (Sage Therapeutics, Inc., priority 2013, dated 2022).

For this experiment, the target named is α1β2γ2 GABAA receptor (Homo sapiens (Human), UniProt P14867+P47870). Briefly: Patch clamp electrophysiology of recombinant α1β2γ2 GABAA receptors in LTK cells. In kind it is cell-based. Conditions: LTK, 10 μM compound, Qpatch, Ltk cells, GABA EC20 2 μM; read-out: α1β2γ2 GABA Qpatch in Ltk (Efficacy at 10 μm). As for the experimental part:
Cellular electrophysiology is used to measure the pharmacological properties of our GABAA receptor modulators in heterologous cell systems. Each compound is tested for its ability to affect GABA mediated currents at a submaximal agonist dose (GABA EC20=2 μM). LTK cells are stably transfected with the α1β2γ2 subunits of the GABA receptor and CHO cells are transiently transfected with the α4β3δ subunits via the Lipofecatamine method. Cells were passaged at a confluence of about 50-80% and then seeded onto 35 mm sterile culture dishes containing 2 ml culture complete medium without antibiotics or antimycotics. Confluent clusters of cells are electrically coupled (Pritchett et al., 1988). Because responses in distant cells are not adequately voltage clamped and because of uncertainties about the extent of coupling (Verdoorn et al., 1990), cells were cultivated at a density that enables the recording of single cells (without visible connections to other cells).
Whole cell currents were measured with HEKA EPC-10 amplifiers using PatchMaster software or by using the high throughput QPatch platform (Sophion). Bath solution for all experiments contained (in mM): NaCl 137 mM, KCl 4 mM, CaCl2 1.8 mM, MgCl2 1 mM, HEPES 10 mM, D-Glucose 10 mM, pH (NaOH) 7.4. In some cases 0.005% cremophor was also added. Intracellular (pipette) solution contained: KCl 130 mM, MgCl2 1 mM, Mg-ATP 5 mM, HEPES 10 mM, EGTA 5 mM, pH 7.2. During experiments, cells and solutions were maintained at room temperature (19° C.-30° C.). For manual patch clamp recordings, cell culture dishes were placed on the dish holder of the microscope and continuously perfused (1 ml/min) with bath solution. After formation of a Gigaohm seal between the patch electrodes and the cell (pipette resistance range: 2.5 MΩ-6.0 MΩ; seal resistance range: >1 GΩ) the cell membrane across the pipette tip was ruptured to assure electrical access to the cell interior (whole-cell patch-configuration). For experiments using the QPatch system, cells were transferred as suspension to the QPatch system in the bath solution and automated whole cell recordings were performed.
Cells were voltage clamped at a holding potential of −80 mV. For the analysis of test articles, GABA receptors were stimulated by 2 μM GABA after sequential pre-incubation of increasing concentrations of the test article. Pre-incubation duration was 30 s and the duration of the GABA stimulus was 2 s. Test articles were dissolved in DMSO to form stock solutions (10 mM). Test articles were diluted to 0.01, 0.1, 1, and 10 μM in bath solution. All concentrations of test articles were tested on each cell. The relative percentage potentiation was defined as the peak amplitude in response to GABA EC20 in the presence of the test article divided by the peak amplitude in response to GABA EC20 alone, multiplied by 100.
Turning to `C[C@@]1(O)CC[C@H]2[C@H](CC[C@@H]3[C@@H]2CC[C@]2(C)[C@@H](C(=O)Cn4ncc5cncnc54)CC[C@@H]32)C1` [SA-36], the activity at 10 µM is over 500%.

`C[C@@]1(O)CC[C@H]2[C@H](CC[C@@H]3[C@@H]2CC[C@]2(C)[C@@H](C(=O)Cn4cc5cc(C#N)ccc5n4)CC[C@@H]32)C1` [SA-37]: the activity at 10 µM is over 500%. Under `C[C@@]1(O)CC[C@H]2[C@H](CC[C@@H]3[C@@H]2CC[C@]2(C)[C@@H](C(=O)Cn4ncc5cc(C#N)ccc54)CC[C@@H]32)C1` [SA-38] stands over 500%; under `C[C@@]1(O)CC[C@H]2[C@H](CC[C@@H]3[C@@H]2CC[C@]2(C)[C@@H](C(=O)Cn4nnc5ccc(Cl)cc54)CC[C@@H]32)C1` [SA-39], 100 to 500%.

For `C[C@@]1(O)CC[C@H]2[C@H](CC[C@@H]3[C@@H]2CC[C@]2(C)[C@@H](C(=O)Cn4nnc5cc(Cl)ccc54)CC[C@@H]32)C1` [SA-40], the activity at 10 µM fell in the range of 100 to 500%. Next, `Cc1ccc2nnn(CC(=O)[C@H]3CC[C@H]4[C@@H]5CC[C@@H]6C[C@](C)(O)CC[C@@H]6[C@H]5CC[C@]34C)c2c1` [SA-42]: 100 to 500%; `Cc1ccc2c(c1)nnn2CC(=O)[C@H]1CC[C@H]2[C@@H]3CC[C@@H]4C[C@](C)(O)CC[C@@H]4[C@H]3CC[C@]12C` [SA-43]: 100 to 500%. As for `Cc1nn(CC(=O)[C@H]2CC[C@H]3[C@@H]4CC[C@@H]5C[C@](C)(O)CC[C@@H]5[C@H]4CC[C@]23C)c2ccccc12` [SA-45], the activity at 10 µM is over 500%. Next, `Cc1c2ccccc2nn1CC(=O)[C@H]1CC[C@H]2[C@@H]3CC[C@@H]4C[C@](C)(O)CC[C@@H]4[C@H]3CC[C@]12C` [SA-46]: over 500%; `COc1ccc2nn(CC(=O)[C@H]3CC[C@H]4[C@@H]5CC[C@@H]6C[C@](C)(O)CC[C@@H]6[C@H]5CC[C@]34C)nc2c1` [SA-47]: over 500%; `C[C@@]1(O)CC[C@H]2[C@H](CC[C@@H]3[C@@H]2CC[C@]2(C)[C@@H](C(=O)Cn4nc5ccccc5c4O)CC[C@@H]32)C1` [SA-54]: over 500%.

On to `C[C@@]1(O)CC[C@H]2[C@H](CC[C@@H]3[C@@H]2CC[C@]2(C)[C@@H](C(=O)Cn4nc(Cl)c5ccccc54)CC[C@@H]32)C1` [SA-55], for which the activity at 10 µM lay within 100 to 500%. Next, `C[C@@]1(O)CC[C@H]2[C@H](CC[C@@H]3[C@@H]2CC[C@]2(C)[C@@H](C(=O)Cn4nnc5ncc(Cl)cc54)CC[C@@H]32)C1` [SA-56]: 100 to 500%; `C[C@@]1(O)CC[C@H]2[C@H](CC[C@@H]3[C@@H]2CC[C@]2(C)[C@@H](C(=O)Cn4nc5ccc(F)cc5n4)CC[C@@H]32)C1` [SA-62]: 100 to 500%; `C[C@@]1(O)CC[C@H]2[C@H](CC[C@@H]3[C@@H]2CC[C@]2(C)[C@@H](C(=O)Cn4nnc5c(F)cccc54)CC[C@@H]32)C1` [SA-64]: 100 to 500%. Next, `C[C@@]1(O)CC[C@H]2[C@H](CC[C@@H]3[C@@H]2CC[C@]2(C)[C@@H](C(=O)Cn4nnc5cccc(F)c54)CC[C@@H]32)C1` [SA-65]: over 500%; `Cc1cccc2c1nnn2CC(=O)[C@H]1CC[C@H]2[C@@H]3CC[C@@H]4C[C@](C)(O)CC[C@@H]4[C@H]3CC[C@]12C` [SA-67]: over 500%; `C[C@@]1(O)CC[C@H]2[C@H](CC[C@@H]3[C@@H]2CC[C@]2(C)[C@@H](C(=O)Cn4nc5ccc(OC(F)(F)F)cc5n4)CC[C@@H]32)C1` [SA-72]: over 500%. Under `COc1cccc2nnn(CC(=O)[C@H]3CC[C@H]4[C@@H]5CC[C@@H]6C[C@](C)(O)CC[C@@H]6[C@H]5CC[C@]34C)c12` [SA-73] stands 100 to 500%.

For `COc1cccc2c1nnn2CC(=O)[C@H]1CC[C@H]2[C@@H]3CC[C@@H]4C[C@](C)(O)CC[C@@H]4[C@H]3CC[C@]12C` [SA-74], the activity at 10 µM fell in the range of 100 to 500%.

Take `COc1cccc2nn(CC(=O)[C@H]3CC[C@H]4[C@@H]5CC[C@@H]6C[C@](C)(O)CC[C@@H]6[C@H]5CC[C@]34C)nc12` [SA-75]: the activity at 10 µM lay in the range of 100 to 500%. As for `C[C@@]1(O)CC[C@H]2[C@H](CC[C@@H]3[C@@H]2CC[C@]2(C)[C@@H](C(=O)Cn4nnc5c(Cl)cccc54)CC[C@@H]32)C1` [SA-76], the activity at 10 µM is over 500%. Next, `C[C@@]1(O)CC[C@H]2[C@H](CC[C@@H]3[C@@H]2CC[C@]2(C)[C@@H](C(=O)Cn4nnc5cccc(Cl)c54)CC[C@@H]32)C1` [SA-77]: over 500%.

As to `C[C@]12CC[C@H]3[C@@H](CC[C@@H]4C[C@@](O)(CF)CC[C@@H]43)[C@@H]1CC[C@@H]2C(=O)Cn1nnc2ccccc21` [SA-79], the activity at 10 µM was over 500%. With `C[C@]12CC[C@H]3[C@@H](CC[C@@H]4C[C@@](O)(CF)CC[C@@H]43)[C@@H]1CC[C@@H]2C(=O)Cn1ncc2ncccc21` [SA-84], the activity at 10 µM was in the range of 100 to 500%. Under `C[C@]12CC[C@H]3[C@@H](CC[C@@H]4C[C@@](O)(CF)CC[C@@H]43)[C@@H]1CC[C@@H]2C(=O)Cn1cc2ccncc2n1` [SA-85] stands over 500%; under `C[C@]12CC[C@H]3[C@@H](CC[C@@H]4C[C@@](O)(CF)CC[C@@H]43)[C@@H]1CC[C@@H]2C(=O)Cn1ncc2ccncc21` [SA-86], 100 to 500%. Under `C[C@]12CC[C@H]3[C@@H](CC[C@@H]4C[C@@](O)(CF)CC[C@@H]43)[C@@H]1CC[C@@H]2C(=O)Cn1nc2ccc(F)cc2n1` [SA-89] stands 100 to 500%. Under `C[C@]12CC[C@H]3[C@@H](CC[C@@H]4C[C@@](O)(C(F)F)CC[C@@H]43)[C@@H]1CC[C@@H]2C(=O)Cn1nnc2ccccc21` [SA-90] stands 10 to 100%; under `C[C@]12CC[C@H]3[C@@H](CC[C@@H]4C[C@@](O)(C(F)F)CC[C@@H]43)[C@@H]1CC[C@@H]2C(=O)Cn1nc2ccccc2n1` [SA-92], 100 to 500%; under `C[C@]12CC[C@H]3[C@@H](CC[C@@H]4C[C@@](O)(C(F)F)CC[C@@H]43)[C@@H]1CC[C@@H]2C(=O)Cn1cc2ncccc2n1` [SA-93], over 500%.

As to `C[C@]12CC[C@H]3[C@@H](CC[C@@H]4C[C@@](O)(C(F)F)CC[C@@H]43)[C@@H]1CC[C@@H]2C(=O)Cn1ncc2ncccc21` [SA-94], the activity at 10 µM lay within 100 to 500%. Next, `C[C@]12CC[C@H]3[C@@H](CC[C@@H]4C[C@@](O)(C(F)F)CC[C@@H]43)[C@@H]1CC[C@@H]2C(=O)Cn1nnc2cnccc21` [SA-96]: 100 to 500%. Under `C[C@]12CC[C@H]3[C@@H](CC[C@@H]4C[C@@](O)(C(F)F)CC[C@@H]43)[C@@H]1CC[C@@H]2C(=O)Cn1nc2ccncc2n1` [SA-97] stands over 500%; under `C[C@]12CC[C@H]3[C@@H](CC[C@@H]4C[C@@](O)(C(F)F)CC[C@@H]43)[C@@H]1CC[C@@H]2C(=O)Cn1cc2ccncc2n1` [SA-99], over 500%; under `C[C@]12CC[C@H]3[C@@H](CC[C@@H]4C[C@@](O)(C(F)F)CC[C@@H]43)[C@@H]1CC[C@@H]2C(=O)Cn1nc2ccc(F)cc2n1` [SA-104], 100 to 500%. On to `Cn1c(CC(=O)[C@H]2CC[C@H]3[C@@H]4CC[C@@H]5C[C@](C)(O)CC[C@@H]5[C@H]4CC[C@]23C)nc2ccccc21` [SA-105], for which the activity at 10 µM is over 500%. Under `CC[C@@]1(O)CC[C@H]2[C@H](CC[C@@H]3[C@@H]2CC[C@]2(C)[C@@H](C(=O)Cn4cc5ncccc5n4)CC[C@@H]32)C1` [SA-110] stands over 500%.
